Measurements: patent US9616125B2, “Stable nocathiacin lyophilized injection agent” (priority 2013, dated 2017)

What was measured:
[1] = test system: vancomycin-resistant enterococcus (VRE); conditions: cited from earlier work
[2] = test system: mycobacterium tuberculosis; conditions: cited from earlier work
[3] = test system: penicillin-resistant streptococcus pneumoniae (PRSP); conditions: cited from earlier work
[4] = test system: methicillin-resistant staphylococcus aureus (MRSA); conditions: cited from earlier work
[5] = Aqueous solubility of nocathiacin I versus pH (shake 24 h, filtration, HPLC)
Method: Excessive purified material of nocathiacin I is added in test tubes with stopper respectively, and a certain amounts of buffer solutions with pH 2, pH 3, pH 4, pH 5, pH 6 and pH 7 are added to ensure that the solutions are in a supersaturated state all the time, and the solutions are shaken for 24 h under room temperature. Then the solutions are filtered through a 0.22 millipore filter, and the subsequent filtrate is taken and fed in a high performance liquid chromatography to measure the drug contents. The chromatogram conditions are as follows. • Chromatographic column: Waters Symmetry, 150 mm×4.6 mm, 5 μm.
Mobile phase: A. distilled water containing 0.05% TFA; and B. acetonitrile containing 0.05% TFA.
Gradient: Gradient elution for 32 min, 30%-60% B.
Column temperature: 40° C., and rate of flow: 1 ml/min
Detection wavelength: 362 nm, and sample volume: 10 μl.

nocathiacin
effective concentration [1]: less than 1 μg/ml | effective concentration [2]: less than 1 μg/ml | effective concentration [3]: less than 1 μg/ml | effective concentration [4]: less than 1 μg/ml

C=C(NC(=O)c1csc(-c2nc3c(cc2O)-c2nc(cs2)C(=O)N[C@@H]([C@@H](C)O)C(=O)N/C(=C(\C)OC)c2nc(cs2)C(=O)N[C@@H]2c4nc(cs4)C(=O)N[C@@H](COC(=O)c4c5c6c(cccc6n4O)COC(=O)[C@@H](O[C@H]4C[C@](C)(O)[C@H](N(C)C)[C@H](C)O4)[C@H]2OC5)c2nc-3cs2)n1)C(N)=O.O=C(O)C(F)(F)F [nocathiacin I]
concentration of nocathiacin I solution that can be obtained ([5]; pH value of the liquid formulation controlled below 6): more than 0.5 mg/mL | solubility of nocathiacin I as a function of pH ([5]; within a scope of pH 1-7, FIG. 1): decreases with the increase of pH value
